In patent US11932637B2, “Chromane amidine monobactam compounds for the treatment of bacterial infections” (priority 2021, dated 2024):

What was measured:
Assay type in all cases: cell-based
[1] = test system: Pseudomonas aeruginosa expressing AmpC (CL5701); assay: Antibiotic activity: growth inhibitory concentration (OD600), P. aeruginosa CL5701; details: concentration inhibiting 95% of bacterial growth, with BLi Relebactam 4 μg/mL, 22 hours
Description: (§1) Biological Assays Antibiotic Activity: Determination of Growth Inhibitory Concentration The concentrations of compounds required to inhibit the growth of various strains of bacteria were determined in an assay that assessed bacterial growth by measuring optical density at 600 nm (OD600). The bacterial strains tested included the clinical strains Escherichia coli expressing NDM-1 (CLB30016), Klebsiella pneumoniae expressing KPC-1 (CL6569), Acinetobacter baumannii expressing TEM-1, AmpC, and Oxa-24/40 (CL6188) and Pseudomonas aeruginosa expressing AmpC (CL5701). All compounds were tested in the presence of a β lactamase inhibitor (BLi, Relebactam) in 384-well microplates.
(§2) The clinical strains were stored as frozen single use stocks, thawed and diluted into 1.1× cation-adjusted Mueller-Hinton II broth to achieve approximately 2×10^5 CFU/mL. Test compounds were dissolved in DMSO and diluted 1:50 in the assay, resulting in a final concentration range of 100 μM to 0.098 μM. On the day of the assay, 1 μL of test compound was added to the plate followed by 4 μL of 50 μg/mL BLi in MOPS buffer and 45 μL of diluted bacteria. Plates were centrifuged at 1000 rpm for 30 seconds, shaken at approximately 800 rpm for 1 minute, and incubated at 35 t 2° C. for 22 hours. The concentration of BLi used in the assay was 4 μg/mL. At the end of the incubation, absorbance at 600 nm was determined using a spectrophotometer. Inhibition was quantitated by identifying the lowest concentration of test compound that was required to inhibit 95% of the growth of the bacteria.

[2] = test system: Escherichia coli expressing NDM-1 (CLB30016); assay: Antibiotic activity: growth inhibitory concentration (OD600), E. coli CLB30016; details: concentration inhibiting 95% of bacterial growth, with BLi Relebactam 4 μg/mL, 22 hours
Description: as §1, §2

[3] = test system: Acinetobacter baumannii expressing TEM-1, AmpC, and Oxa-24/40 (CL6188); details: concentration inhibiting 95% of bacterial growth; with BLi Relebactam 4 μg/mL; 22 hours; OD600
Description: as §1, §2

| SMILES | PA_CL5701 MITC95 [1] [µM] | EC_CLB30016 MITC95 [2] [µM] | AB_CL6188 MITC95 [3] [µM] |
| --- | --- | --- | --- |
| CC1(C)[C@H](NC(=O)/C(=N\O[C@](C)(C(=O)O)[C@H]2CCc3cc(C(=N)N[C@H]4C[C@@H](N)C4)ccc3O2)c2csc(N)n2)C(=O)N1OS(=O)(=O)O [Compound 7, (S)-2-((R)-6-(N-((1 s,3S)-3-aminocyclobutyl)carbamimidoyl)chroman-2-yl)-2-((((Z)-1-(2-aminothiazol-4-yl)-2-(((S)-2,2-dimethyl-4-oxo-1-(sulfooxy)azetidin-3-yl)amino)-2-oxoethylidene)amino)oxy)propanoic acid] | 1.563 | – | – |
| CC1(C)[C@H](NC(=O)/C(=N\O[C@](C)(C(=O)O)[C@H]2CCc3cc(C(=N)N[C@H]4C[C@]5(CCNC5)C4)ccc3O2)c2csc(N)n2)C(=O)N1OS(=O)(=O)O [Compound 22, (S)-2-((R)-6-(N-((2r,4S)-6-azaspiro[3.4]octan-2-yl)carbamimidoyl)chroman-2-yl)-2-((((Z)-1-(2-aminothiazol-4-yl)-2-(((S)-2,2-dimethyl-4-oxo-1-(sulfooxy)azetidin-3-yl)amino)-2-oxoethylidene)amino)oxy)propanoic acid] | 1.563 | – | – |
| CC1(C)[C@H](NC(=O)/C(=N\O[C@](C)(C(=O)O)[C@H]2CCc3cc(C(=N)N[C@H]4C[C@@]5(CCNC5)C4)ccc3O2)c2csc(N)n2)C(=O)N1OS(=O)(=O)O [Compound 23, (S)-2-((R)-6-(N-((2s,4R)-6-azaspiro[3.4]octan-2-yl)carbamimidoyl)chroman-2-yl)-2-((((Z)-1-(2-aminothiazol-4-yl)-2-(((S)-2,2-dimethyl-4-oxo-1-(sulfooxy)azetidin-3-yl)amino)-2-oxoethylidene)amino)oxy)propanoic acid] | 3.125 | 6.25 | 6.25 |
| CC1(C)[C@H](NC(=O)/C(=N\O[C@](C)(C(=O)O)[C@H]2CCc3cc(C(=N)NC4CC(N)(C[C@H](O)CO)C4)ccc3O2)c2csc(N)n2)C(=O)N1OS(=O)(=O)O (stereo partly drawn) [Compound 94, (S)-2-((R)-6-(N-((1S,3R)-3-amino-3-((S)-2,3-dihydroxypropyl)cyclobutyl)carbamimidoyl)chroman-2-yl)-2-((((Z)-1-(2-aminothiazol-4-yl)-2-(((S)-2,2-dimethyl-4-oxo-1-(sulfooxy)azetidin-3-yl)amino)-2-oxoethylidene)amino)oxy)propanoic acid] | 1.563 | – | 6.25 |
| CC1(C)[C@H](NC(=O)/C(=N\O[C@](C)(C(=O)O)[C@H]2CCc3cc(C(=N)N[C@H]4C[C@@](N)(C[C@@H](O)CO)C4)ccc3O2)c2csc(N)n2)C(=O)N1OS(=O)(=O)O [Compound 95, (S)-2-((R)-6-(N-((1R,3R)-3-amino-3-((R)-2,3-dihydroxypropyl)cyclobutyl)carbamimidoyl)chroman-2-yl)-2-((((Z)-1-(2-aminothiazol-4-yl)-2-(((S)-2,2-dimethyl-4-oxo-1-(sulfooxy)azetidin-3-yl)amino)-2-oxoethylidene)amino)oxy)propanoic acid] | 1.563 | 6.25 | – |
| CC1(C)[C@H](NC(=O)/C(=N\O[C@](C)(C(=O)O)[C@H]2CCc3cc(C(=N)N[C@H]4C[C@](N)(CC(O)CO)C4)ccc3O2)c2csc(N)n2)C(=O)N1OS(=O)(=O)O (stereo partly drawn) [Compound 96, (S)-2-((R)-6-(N-((1R,3S)-3-amino-3-((S)-2,3-dihydroxypropyl)cyclobutyl)-carbamimidoyl)chroman-2-yl)-2-((((Z)-1-(2-aminothiazol-4-yl)-2-(((S)-2,2-dimethyl-4-oxo-1-(sulfooxy)azetidin-3-yl)amino)-2-oxoethylidene)amino)oxy)propanoic acid] | 1.563 | – | 6.25 |
| COCc1c(C(=N)N[C@H]2C[C@@H](N)C2)ccc2c1CC[C@H]([C@](C)(O/N=C(\C(=O)N[C@@H]1C(=O)N(OS(=O)(=O)O)C1(C)C)c1csc(N)n1)C(=O)O)O2 [Compound 124, (S)-2-((R)-6-(N-((1s,3S)-3-aminocyclobutyl)carbamimidoyl)-5-(methoxymethyl)chroman-2-yl)-2-((((Z)-1-(2-aminothiazol-4-yl)-2-(((S)-2,2-dimethyl-4-oxo-1-(sulfooxy)azetidin-3-yl)amino)-2-oxoethylidene)amino)oxy)propanoic acid] | 3.125 | 50 | – |
| COC[C@]1(NC(=N)c2ccc3c(c2)CC[C@H]([C@](C)(O/N=C(\C(=O)N[C@@H]2C(=O)N(OS(=O)(=O)O)C2(C)C)c2csc(N)n2)C(=O)O)O3)CC[C@@H](N)CC1 [Compound 126, (S)-2-((R)-6-(N-((1s,4S)-4-amino-1-(methoxymethyl)cyclohexyl)carbamimidoyl)chroman-2-yl)-2-((((Z)-1-(2-aminothiazol-4-yl)-2-(((S)-2,2-dimethyl-4-oxo-1-(sulfooxy)azetidin-3-yl)amino)-2-oxoethylidene)amino)oxy)propanoic acid] | 6.25 | 25 | – |
| COC[C@]1(NC(=N)c2ccc3c(c2)CC[C@H]([C@](C)(O/N=C(\C(=O)N[C@@H]2C(=O)N(OS(=O)(=O)O)C2(C)C)c2csc(N)n2)C(=O)O)O3)CC[C@H](N)CC1 [Compound 127, (S)-2-((R)-6-(N-((1r,4R)-4-amino-1-(methoxymethyl)cyclohexyl)carbamimidoyl)chroman-2-yl)-2-((((Z)-1-(2-aminothiazol-4-yl)-2-(((S)-2,2-dimethyl-4-oxo-1-(sulfooxy)azetidin-3-yl)amino)-2-oxoethylidene)amino)oxy)propanoic acid] | 3.125 | – | – |
